Measured values reported in US10640495B2, “Heterocycle derivatives having TrkA inhibitory activity” (Shionogi & Co., Ltd., priority 2015, dated 2020).
Like-named read-outs stand apart in the source and are kept apart here.

Target: human TrkA (Homo sapiens (Human), UniProt P04629)
Assay: Human TrkA inhibition assay (Test Example 2)
Type: biochemical
Settings: read-out: IC50
Outline: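 Recombinant TrkA (1 nmol/L) was preincubated 15 min at room temperature with compound in HEPES/MgCl2/DTT buffer, then reacted with FL-peptide 27 (1.5 μmol/L) and ATP (500 μmol/L) for 120 min at 37 °C. After EDTA stop, substrate phosphorylation was read by microfluidic mobility shift. IC50 came from logistic regression over 3-fold dilution series.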

[1] = Table 153, human TrkA inhibition
[2] = Table 155, human TrkA inhibition
[3] = Table 157, human TrkA inhibition
[4] = Table 154, human TrkA inhibition
[5] = Table 156, human TrkA inhibition

Sequence of human TrkA (P04629 440-796): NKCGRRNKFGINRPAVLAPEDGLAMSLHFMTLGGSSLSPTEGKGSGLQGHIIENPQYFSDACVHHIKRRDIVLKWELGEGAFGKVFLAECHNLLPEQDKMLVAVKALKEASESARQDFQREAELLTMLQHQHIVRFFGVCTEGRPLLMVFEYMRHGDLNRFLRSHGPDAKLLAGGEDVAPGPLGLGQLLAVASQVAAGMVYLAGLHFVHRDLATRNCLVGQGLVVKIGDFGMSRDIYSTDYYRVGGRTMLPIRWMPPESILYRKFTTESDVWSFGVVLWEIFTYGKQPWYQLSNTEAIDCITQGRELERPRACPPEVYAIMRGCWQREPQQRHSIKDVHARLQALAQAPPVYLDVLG

Compound: COCCN1C[C@@H](NC(=O)Nc2c(C)c(-c3cc(C)c(=O)n(C)c3)nn2-c2ccccc2)[C@H](c2cnc(F)c(F)c2)O1 (racemic) [Compound I-71]
- IC50 [1]: < 0.1 µM

Compound: CNC(=O)c1ccc(-c2nn(-c3ccccc3)c(NC(=O)N[C@@H]3CN(CCOC)O[C@H]3c3cnc(F)c(F)c3)c2C)cn1 (racemic) [Compound I-453]
- IC50 [2]: < 0.1 µM

Compound: CNC(=O)c1cc(-c2nn(-c3ccccc3)c(NC(=O)N[C@@H]3CNO[C@H]3c3ccc(F)c(F)c3)c2C)cnc1OC (racemic) [Compound I-474]
- IC50 [2]: 0.1 to 1 µM

Compound: COCCN1C[C@@H](NC(=O)Nc2c(C)c(OCC3CN(C(=O)OC(C)(C)C)CCO3)nn2-c2ccccc2)[C@H](c2ccnc(F)c2)O1 (stereo partly drawn) [Compound I-499]
- IC50 [2]: < 0.1 µM

Compound: CCN1C[C@@H](NC(=O)Nc2c(C)c(-c3cnc4c(c3)OCCO4)nn2-c2ccccc2)[C@H](c2ccc(F)c(F)c2)O1 (racemic) [Compound I-626]
- IC50 [3]: < 0.1 µM

Compound: COCC[C@@H]1C[C@@H](NC(=O)Nc2c(C)c(-c3cc(C(=O)OC)c(=O)n(C)c3)nn2-c2ccccc2)[C@H](c2ccnc(F)c2)O1 [Compound I-251]
- IC50 [4]: < 0.1 µM

Compound: COCCN1C[C@@H](NC(=O)Nc2c(C)c(-c3cnc(OC4CCOCC4)nc3)nn2-c2ccccc2)[C@H](c2ccnc(F)c2)O1 (racemic) [Compound I-443]
- IC50 [2]: < 0.1 µM

Compound: COCC[C@@H]1C[C@@H](NC(=O)Nc2c(C)c(-c3cnc(N4CC(O)C4)nc3)nn2-c2ccccc2)[C@H](c2ccc(F)c(F)c2)O1 (racemic) [Compound I-242]
- IC50 [4]: < 0.1 µM

Compound: COCCN1C[C@@H](NC(=O)Nc2c(C)c(-c3cnc(C)nc3)nn2-c2ccccc2)[C@H](c2ccccc2)O1 (racemic) [Compound I-160]
- IC50 [1]: < 0.1 µM

Compound: COCCN1C[C@@H](NC(=O)Nc2c(C)c(-c3ccnc(CN(C)C)c3)nn2-c2ccccc2)[C@H](c2ccc(F)c(F)c2)O1 [Compound I-618]
- IC50 [3]: < 0.1 µM

Compound: COCCN1C[C@@H](NC(=O)Nc2c(C)c(-c3cnc(OC)c(C(=O)NC4CCOCC4)c3)nn2-c2ccccc2)[C@H](c2ccnc(F)c2)O1 (racemic) [Compound I-111]
- IC50 [1]: < 0.1 µM

Compound: COCC[C@@H]1C[C@@H](NC(=O)Nc2c(C)c(-c3cnc(N4CC(OC)C4)nc3)nn2-c2ccccc2)[C@H](c2ccnc(F)c2)O1 [Compound I-553]
- IC50 [5]: < 0.1 µM

Compound: COCCN1C[C@@H](NC(=O)Nc2c(C)c(-c3cnc4c(cnn4C)c3)nn2-c2ccccc2)[C@H](c2cnc(F)c(F)c2)O1 (racemic) [Compound I-67]
- IC50 [1]: < 0.1 µM

Compound: COc1ncc(-c2nn(-c3ccccc3)c(NC(=O)N[C@@H]3CN(CCCO)O[C@H]3c3ccc(F)c(F)c3)c2C)cn1 (racemic) [Compound I-678]
- IC50 [3]: 0.1 to 1 µM

Compound: COCCN1C[C@H](NC(=O)Nc2c(C)c(OCC(C)(C)O)nn2-c2ccccc2)[C@@H](c2cnc(F)c(F)c2)O1 [Compound I-83]
- IC50 [1]: > 1 µM

Compound: COCCN1C[C@@H](NC(=O)Nc2c(C)c(-c3cnc(N4CC(OC)C4)nc3)nn2-c2ccccc2)[C@H](c2ccnc(F)c2)O1 (racemic) [Compound I-489]
- IC50 [2]: < 0.1 µM

Compound: COCCN1C[C@@H](NC(=O)Nc2c(C)c(-c3cnc(OC(C)C)nc3)nn2-c2ccccc2)[C@H](c2ccnc(F)c2)O1 (racemic) [Compound I-477]
- IC50 [2]: < 0.1 µM

Compound: COCCN1C[C@@H](NC(=O)Nc2c(C)c(-c3ccc(N4C[C@H]5COC[C@@H](C4)N5C(=O)OC(C)(C)C)nc3)nn2-c2ccccc2)[C@H](c2ccnc(F)c2)O1 (racemic) [Compound I-393]
- IC50 [2]: < 0.1 µM

Compound: CNC(=O)c1cc(-c2nn(-c3ccc(F)cc3)c(NC(=O)N[C@@H]3CN(CCOC)O[C@H]3c3ccc(F)c(F)c3)c2C)cnc1OC (racemic) [Compound I-183]
- IC50 [4]: < 0.1 µM

Compound: CCN1C[C@@H](NC(=O)Nc2c(C)c(OCC3CCN(C(C)=O)CC3)nn2-c2ccccc2)[C@H](c2ccc(F)cc2)O1 (racemic) [Compound I-566]
- IC50 [5]: < 0.1 µM

Compound: CCN1C[C@@H](NC(=O)Nc2c(C)c(-c3cnc(OC)c(C(=O)NC4CCOCC4)c3)nn2-c2ccccc2)[C@H](c2ccc(F)c(F)c2)O1 (racemic) [Compound I-545]
- IC50 [5]: < 0.1 µM
